Read-outs that look alike come from different tables or passages of the source.
Columns and labels:
N. europaea = assay: Oxygen (O2) uptake of N. europaea cell suspension; format: cell-based, Nitrosomonas europaea; settings: FIG. 12, cells at 0.5 mg/mL total protein, thiram 4 μM, nitrapyrin and formulations 100 μM
Protocol: 1.5 L of cell culture suspension containing N. europaea bacteria (ATCC #19718) was resuspended into a phosphate buffer (0.1M NaPB, 2 mM Mg SO4, pH of 7.5). The amount of N. europaea protein was quantified using a Biuret assay.
To a buffer solution containing 10 μM of (NH4)2SO4 in a total reaction volume of 5 mL was added 0.25 mg/mL of the N. europaea containing cell suspension. The N. europaea protein content varied (e.g., 0.25 mg/mL, 0.3 mg/mL or 0.5 mg/mL total protein). Measurements of O2 present in the reaction medium were taken immediately after the addition of the cell suspension to the buffer solution for and were taken continuously over a certain time period.
Test compounds and formulations included 4 μM thiram, 100 μM nitrapyrin, 100 μM of formulation 2, 100 μM of formulation 3, 100 μM of formulation 4, 100 μM of formulation 2 plus 4 μM thiram, 100 μM of formulation 3 plus 4 μM thiram; and 100 μM of formulation 4 plus 4 μM, and thiram, untreated N. europaea assay served as the control.
Results are typically plotted as a function of measured oxygen (i.e., the amount of dissolved oxygen) in solution over time to generate a inhibition curve (FIG. 11). Measurements of the area under the inhibition curve can provide a bar chart showing the oxygen consumption of N. europaea of the entire testing period.

Nitrosomonas europaea = assay: Inhibition of nitrite generation by N. europaea cell suspension (Griess reagent, absorbance 548 nm); format: cell-based; settings: thiram 4 μM, relative to zero inhibitor control, read-out: % control (percent control of nitrification inhibition), observed
Protocol: 1.5 L of cell culture suspension containing Nitrosomonas europaea (N. europaea) bacteria (ATCC #19718) was resuspended into a phosphate buffer (0.1M NaPB, 2 mM Mg SO4, pH of 7.5). The amount of N. europaea protein was quantified using a Biuret assay. A sample of the cell culture suspension containing about 0.3 mg/mL, 0.25 mg/mL, or 0.5 mg/mL of N. europaea protein was incubated with 50 μL of (NH4)2SO4 in a total reaction volume of 5 mL. The test measured inhibition for treatment rates of 4 μM thiram, 100 μM nitrapyrin, 100 μM of formulation 2 (form.2), formulation 3 (form.3), formulation 4 (form.4) and 100 μM of formulation 2 (form.2) plus 4 μM thiram, 100 μM of formulation 3 (form.3) plus 4 μM thiram and 100 μM of formulation 4 (form.4) plus 4 μM thiram; an untreated N. europaea assay served as the control. At time points 0, 30, and 60 minutes post addition of (NH4)2SO4, an aliquot of 500 μL was removed from the reaction mixture and was incubated for 30 minutes with 500 μL of Griess Reagent in the dark followed by measuring the absorbance at 548 nm for the presence or absence of nitrite. The percent of nitrification inhibition was calculated based on the relative percentage of nitrite measurement against the zero inhibitor control measurement (see FIGS. 2-4 showing the percent control of nitrification inhibition). […]

For `Clc1cccc(C(Cl)(Cl)Cl)n1` [nitrapyrin, 2-chloro-6-(trichloromethyl)-pyridine], the “inhibition of oxygen consumption by N. europaea” value (N. europaea) was “did not inhibit”.

`CN(C)C(=S)SSC(=S)N(C)C` [Thiram] showed an inhibition at 4 µM (Nitrosomonas europaea; 0.5 h, 30 min after (NH4)2SO4, formulation 100 μM) of 77.7 ± 1%, an inhibition at 4 µM (Nitrosomonas europaea; 1 h, 60 min after (NH4)2SO4, formulation 100 μM) of 77.3 ± 1.2% and an inhibition at 4 µM (N. europaea; Nitrosomonas europaea, read-out: inhibition of oxygen consumption by N. europaea) of 20%.

Reference: patent US20230059705A1, “NITRIFICATION INHIBITOR FUNGICIDE COMPOSITION AND USE THEREOF” (Verdesian Life Sciences U.S., LLC, priority 2019, published 2023)
